The results in this text go back to BigSolDB 2.1.

The mark [1] stands for this setting: in 2,2,4-trimethylpentane, 298.2 K.
Where [2] appears, read: in 2,2,4-trimethylpentane, 308.2 K.
Setting [3] is: in 2,2,4-trimethylpentane, 318.2 K.

Each structure is given as a SMILES string.

For orientation: solubility (mole fraction) means the moles of solute divided by all moles in the saturated solution. On to `c1ccc2cc3ccccc3cc2c1`, for which the solubility (mole fraction) stood at 0.00119 under setting [1]; 0.00152 under setting [2]; 0.00177 under setting [3]; 0.000505 (in ethanol, 298.2 K); 0.000665 (in ethanol, 308.2 K); 0.00078 (in ethanol, 318.2 K).
On to `c1ccc2c(c1)ccc1ccccc12`, for which the solubility (mole fraction) reads like this: under setting [1], 0.0246; under setting [2], 0.0378; under setting [3], 0.0484; (in ethanol, 298.2 K) 0.0119; (in ethanol, 308.2 K) 0.0159; (in ethanol, 318.2 K) 0.019.
